Experimental data published in patent US8278311B2, “Substituted pyrimidine derivatives” (Abbott Laboratories, priority 2008, dated 2012).
Like-named read-outs stand apart in the source and are kept apart here.

Legend:
[1] = system: carrageenan-induced thermal hyperalgesia; assay: acute model of carrageenan-induced thermal hyperalgesia (hotbox assay); assay type: in vivo; conditions: assessed 30 minutes after dosing
Protocol: To assess the effectiveness of representative compounds of the invention against acute model inflammatory pain, animals were tested in an acute model of carrageenan-induced thermal hyperalgesia (see for example, Honore, et al. Behavioural Brain Research (2006) vol. 167 pp. 355-364; Porreca, et al. Journal of Pharmacology and Experimental Therapeutics (2006) vol. 318 pp. 195-205). Carrageenan was injected into the test paw of the animal, and after 90 minutes, the test drug was administered by intraperitoneal dosing; the effect on thermal hyperalgesia was assessed in a hotbox assay which was done 30 minutes after the intraperitoneal dosing of the test drug, and the MPE (maximal percent effect) reported by comparison to the control paw (not injected with carrageenan), according to 100 times the withdrawal latency of the carrageenan injected paw (in seconds) divided by the withdrawal latency of the control (not injected with carrageenan) paw. […] Representative compounds are active in this model, with preferred compounds of the invention active in the model at doses of about 100 micromoles/kg of body weight.

histamine H4 receptor [2] = biological target: T1, histamine H4 receptor (Homo sapiens, UniProt Q9H3N8); assay: in vitro assay of histamine H4 activity using FLIPR-Ca+2 flux; assay type: cell-based; conditions: HEK-293 cells stably expressing histamine H4 receptor and Gαqi5, Fluo-4; Kb for antagonists and inverse agonists, EC50 for partial agonists
T1 construct: expressed in transfected cells
From the text: There are many methods available to show the effectiveness of compounds as histamine H4 receptor ligands. Histamine H4 receptors from mammalian species have been cloned. Methods to clone, express, and assess the potency and functional activity of such cloned genes are well known to those skilled in the art of molecular biology. Examples of methods of cloning and expressing histamine H4 receptors, and of assessing the potency and functional activity are described in Nguyen, et al. Molecular Pharmacology (2001) vol. 59 pp. 427-433; Zhu, et al. Molecular Pharmacology (2001) vol. 59 pp. 434-441; Coge, et al., Biochemical and Biophysical Research Communications (2001) vol. 284, pp. 301-309; Liu, et al. Molecular Pharmacology (2001) vol. 59 pp. 420-426; Liu, et al. Journal of Pharmacology and Experimental Therapeutics (2001) v. 299, pp. 121-130; and Thurmond, et al. Journal of Pharmacology and Experimental Therapeutics (2004) v. 309, pp. 404-413. In the present case, to determine the potency and effectiveness of representative compounds of this invention as histamine-H4 receptor ligands (H4 receptor ligands), the following tests were conducted according to previously described methods (see Esbenshade, et al., Biochemical Pharmacology (2004), vol. 68, pp. 933-945, and in Krueger, et al., Journal of Pharmacology and Experimental Therapeutics (2005) v. 314, pp. 271-281): histamine H4 receptors were cloned and stably expressed in HEK-293 (human embryonic kidney) cells coexpressing a Gαqi5. Before testing, cells are loaded with a Ca+^2 sensitive fluorescent dye, in this case Fluo-4 (Invitrogen, Carlsbad, Calif.). In the case of partial agonist or agonist ligands, addition of compound to the cells leads to the increase in intracellular Ca^+2 which is detected by FLIPR (Fluorescence Imaging Plate Reader; Molecular Devices, Sunnyvale, Calif.) technology. In a similar manner, compounds that are antagonists or inverse agonists, block the increase in fluorescence induced by the full histamine H4 agonist histamine, and partial agonists reduce the amount of fluorescence induced by the full histamine H4 agonist histamine. The fluorescence intensities measured before addition of the test compound are subtracted from the fluorescence intensities at later time points. Peak response values determined at each concentration of ligand are expressed as a percentage of the response obtained with the full agonist histamine. Concentration versus response data are analyzed to obtain compound potency as Kb values for antagonists and inverse agonists and as EC50 values for partial agonists.

histamine H4 receptor [3] = biological target: T1, histamine H4 receptor; assay: 3H-histamine competition binding assay
Protocol: The potency of compounds of the invention in displacing ^3H-histamine in competition binding assays is assessed by methods described in Esbenshade, et al., Biochemical Pharmacology (2004), vol. 68, pp. 933-945. In this assay, membranes were prepared from HEK-293 cells transiently transfected with the pClNeo expression vector harboring the histamine H4 receptor by homogenization of the cells on ice in TE buffer (50 mM Tris-HCl buffer, pH 7.4, containing 5 mM EDTA), 1 mM benzamidine, 2 μg/mL aprotinin, 1 μg/mL leupeptin, and 1 μg/mL pepstatin. The homogenate was centrifuged at 40,000 g for 20 minutes at 4° C. This step was repeated, and the resulting pellet was resuspended in TE buffer. Aliquots were frozen at −70° C. until needed. On the day of assay, membranes were thawed and diluted with TE buffer. Competition radioligand binding assays were performed with increasing concentrations of test compound in the presence of [^3H]-histamine incubated at 25° C. for 1 hour in a total volume of 0.5 mL of 50 mM Tris, 5 mM EDTA, pH 7.4. All binding reactions were terminated by filtration under vacuum onto polyethylenimine (0.3%) presoaked Unifilters (PerkinElmer Life Sciences) or Whatman GF/B filters (Whatman, Clifton, N.J.) followed by three brief washes with 4 mL of ice-cold TE buffer. Bound radiolabel was determined by liquid scintillation counting. For all of the radioligand competition binding assays, IC50 values and Hill slopes were determined by Hill transformation of the data and Ki values were determined by the Cheng-Prusoff equation. The following table of representative histamine H4 receptor ligands is provided, along with potency values: […]

[4] = 100 micromole/kg injected intraperitoneally
[5] = membranes of HEK-293 cells transiently transfected with histamine H4 receptor, [3H]-histamine, 25° C., 1 hour, read-out: Binding assay Potency (Ki)

T1 sequence (Q9H3N8 whole entry, species assumed): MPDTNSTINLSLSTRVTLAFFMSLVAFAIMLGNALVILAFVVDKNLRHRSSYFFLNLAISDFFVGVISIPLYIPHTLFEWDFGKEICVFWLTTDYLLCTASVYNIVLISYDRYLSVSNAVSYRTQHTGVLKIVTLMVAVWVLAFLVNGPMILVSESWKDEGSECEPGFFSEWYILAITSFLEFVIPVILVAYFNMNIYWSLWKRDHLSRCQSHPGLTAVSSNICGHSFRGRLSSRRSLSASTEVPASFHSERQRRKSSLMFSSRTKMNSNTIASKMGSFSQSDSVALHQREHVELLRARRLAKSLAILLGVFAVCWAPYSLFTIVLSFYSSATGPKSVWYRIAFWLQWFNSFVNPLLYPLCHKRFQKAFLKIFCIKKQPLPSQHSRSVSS

Nc1nc2c(c(N3CCNCC3)n1)CCC1=C2[C@@H]2CCCC[C@@H]2O1 (single isomer, unassigned) [Example 3, (−)-(7aS*,11aS*)-4-piperazin-1-yl-5,6,7a,8,9,10,11,11a-octahydro[1]benzofuro[2,3-h]quinazolin-2-amine]
MPE (maximal percent effect) [1, 4]: 47% | Potency (histamine H4 receptor [2]): 5.9 nM | Ki (histamine H4 receptor [3]; [5]): 16.6 nM

Nc1nc2c(c(N3CCNCC3)n1)CCC1=C2[C@H]2CCCC[C@H]2O1 (single isomer, unassigned) [Example 4, (+)-(7aR*,11aR*)-4-piperazin-1-yl-5,6,7a,8,9,10,11,11a-octahydro[1]benzofuro[2,3-h]quinazolin-2-amine]
MPE (maximal percent effect) [1, 4]: 63% | Potency (histamine H4 receptor [2]): 4.5 nM | Ki (histamine H4 receptor [3]; [5]): 3 nM

Nc1nc2c(c(N3CCNCC3)n1)CCC1=C2C2CCCCC2O1 (centres unmarked) [Example 1, 4-piperazin-1-yl-5,6,7a,8,9,10,11,11a-octahydro[1]benzofuro[2,3-h]quinazolin-2-amine]
MPE (maximal percent effect) ([1]; 30 micromole/kg injected intraperitoneally): 48% | MPE (maximal percent effect) [1, 4]: 68% | Potency (histamine H4 receptor [2]): 4.7 nM | Ki (histamine H4 receptor [3]; [5]): 5.8 nM

Nc1nc2c(c(N3CC4CCCNC4C3)n1)CCC1CCCCC21 (stereo not drawn) [Example 18, trans-4-[cis-octahydro-6H-pyrrolo[3,4-b]pyridin-6-yl]-5,6,6a7,8,9,10,10a-octahydrobenzo[h]quinazolin-2-amine]
Potency (histamine H4 receptor [2]): 4.9 nM | Ki (histamine H4 receptor [3]): 2.6 nM

CN[C@@H]1CCN(c2nc(N)nc3c2CCC2=C3C3CCCCC3O2)C1 (stereo partly drawn) [Example 2, 4-[(3R)-3-(methylamino)pyrrolidin-1-yl]-5,6,7a,8,9,10,11,11a-octahydro[1]benzofuro[2,3-h]quinazolin-2-amine]
Potency (histamine H4 receptor [2]): 5.9 nM | Ki (histamine H4 receptor [3]; [5]): 3.3 nM
